Results published in patent publication US11564913B2, “Compositions and methods for treating cancer” (Children's Hospital Medical Center, priority 2019, dated 2023).

Key:
[1] = test system: MDA-MB-231 triple negative breast cancer xenografts; experiment: MDA-MB-231 orthotopic xenograft mouse model; type: in vivo, mice
Excerpt: FIG. 8: IODVA1 inhibits tumor growth of human breast and lung cancer xenografts. […] (B) Tumors were also stained for Ki67 as a proliferation marker (top panel). […] (C) Quantification of Ki67-positive and cleaved caspase 3-positive cells of tumors shown in (B). […] Animals began treatment when tumors became detectable at 10 days post-injection (*, p<0.05). […] IODVA1 treated tumors also had fewer proliferating cells compared to control vehicle treated animals, as determined by immunohistochemical staining for Ki67 (bottom) and increased intratumoral fibrosis. Representative images were taken at 100× magnification, scale bar is 200 μm. (F) Quantification of Ki67+ cells in control and IODVA1 treated tumors shown in (E).
To examine if the ability of IODVA1 to reduce oncogene-driven cell proliferation can be translated in vivo, applicants tested its efficacy on one breast cancer and one lung cancer xenograft mouse model. The breast cancer model utilizes the human triple negative breast cancer MDA-MB-231 cells. Cells were orthotopically injected into the right and left inguinal mammary glands of immunodeficient female mice. Tumor-bearing mice then received an intraperitoneal (IP) injection of 250 μL of […] IODVA1 every other day, for an average dose of 3.5 mg/kg. Dosage regimen was not optimized, and it is expected that better results are obtained if IODVA1 dosage is increased. […]
For xenograft studies, 1×10^6 MDA-MB-231 cells were suspended in PBS and injected into each inguinal mammary fat pad of nulliparous, 10-week old female athymic nude mice. Tumors were measured weekly with digital calipers and volume was calculated as [(π/6))×L×W^2] […] At necropsy, the mice were weighed and the tumors were excised, measured, weighed, fixed in 4% paraformaldehyde, and embedded in paraffin. Peripheral blood was collected by cardiac puncture and analyzed with a Hemavet (Drew Scientific, Miami Lakes, Fla., USA) for complete blood counts. […]

[2] = test system: BCR-ABL1-transformed Ba/F3 cells; experiment: Colony formation assay in soft agar; type: cell-based, murine; conditions: 1 or 10 μM
Experimental: (B) IODVA1-dependent survival curves of empty vector (red circles) or p190-BCR-ABL1 (black circles) expressing Ba/F3 cells and of Nalm-1 cells. […] (C) p190-BCR-ABL1 (grey line) or Mieg3 (black line) expressing Ba/F3 cells were allowed to grow for 1 day, treated with IODVA1 (IO1, 1 μM) for 1 day, and washed (black arrow). Cells were counted for 7 days using trypan blue exclusion. (D) Ba/F3 cells stably expressing p190-BCR-ABL1 were subjected to colony formation assay in soft agar (0.25% Noble Agar in RPMI/FBS/IL-3) in the presence of DMSO or IODVA1 (1 or 10 μM). Colonies were allowed to form for 10 days then stained with iodonitrotetrazolium (1 mg/mL). Data are representative of at least three independent experiments in triplicates. Note the smaller colony size in 1 μM IODVA1 treatment group. (E) Leukemic burden (%) of treated mice before treatment (left upper panel) and at the indicated treatment time was analyzed by flow cytometry of bone marrow aspirates as population containing B220^+/CD43^+ pro-B cells. (F) Count (%) of residual leukemic (EGFP^+-BCR-ABL1) cells in peripheral blood at weeks 3 and 5 for the secondary transplant mice from FIG. 1D. […]
IODVA1 specifically targets BCR-ABL B-ALL cells in vitro. […] We then assessed survival of p190-BCR-ABL-transformed CD34^+ cells in the presence of IODVA1 by trypan blue exclusion. […]

## OC1(c2ccccn2)N=C(Nc2nc3ccccc3[nH]2)N=C1c1ccccn1 (stereo not shown) [IODVA1, (Z)-2-((1H-benzo[d]imidazol-2-yl)imino)-4,5-di(pyridin-2-yl)-2,5-dihydro-1H-imidazol-5-ol]
[1]; IP, average dose of 3.5 mg/kg, four weeks post treatment
  decrease of tumor volume compared to vehicle-treated control mice: ≥ 50%
[1]; after four weeks treatment
  apoptosis, cleaved caspase-3 stained tumor sections: significant increase
  cell proliferation, Ki-67 stained tumors: did not reveal a statistical change
[2]
  clonogenic ability in soft agar: inhibits
